# Source: US20100197760A1, “DISUBSTITUTED PHENYLPYRROLIDINES AS MODULATORS OF CORTICAL CATECHOLAMINERGIC NEUROTRANSMISSION” (NSAB, FILIAL AF NEUROSEARCH SWEDEN AB, SVERIGE, priority 2007, published 2010)
# Counter-ions that a name gives are not always drawn.
# System: not given
# Assay: not given
# Conditions: not given
row,Compound,melting point [°C]
1,"CN1CCC(c2ccc(F)c(F)c2)C1 (stereo not drawn) (as salt: fumaric acid salt) [Example 4, 3-(3,4-DIFLUOROPHENYL)-1-METHYLPYRROLIDINE]",140 to 142
2,"Fc1ccc(C2CCNC2)c(F)c1 (stereo not drawn) (as salt: oxalic acid salt) [Example 2, 3-(2,4-DIFLUOROPHENYL)PYRROLIDINE]",116
3,"Fc1ccc(C2CCNC2)cc1F (stereo not drawn) (as salt: hydrochloric acid salt) [Example 5, 3-(3,4-DIFLUOROPHENYL)PYRROLIDINE]",139 to 140
4,"Clc1ccc(C2CCNC2)cc1Cl (stereo not drawn) (as salt: hydrochloric acid salt) [Example 1, 3-(3,4-DICHLOROPHENYL)PYRROLIDINE]",136 to 137
5,"Fc1cc(F)cc(C2CCNC2)c1 (stereo not drawn) (as salt: oxalic acid salt) [Example 3, 3-(3,5-DIFLUOROPHENYL)PYRROLIDINE]",199 to 200

# System: extracellular levels of dopamine, norepinephrine and serotonin in striatum and prefrontal cortex
# Assay: not given
# Conditions: literature statement (Pliszka, 2005); cited from earlier work
row,Compound,cortical DA and NE levels
1,CNCC[C@@H](Oc1ccccc1C)c1ccccc1 [atomoxetine],regionally selective increases in cortical DA and NE

# System: extracellular levels of dopamine, norepinephrine and serotonin in striatum and prefrontal cortex
# Assay: In vivo microdialysis in awake, freely moving rats
# Design: species or system rat (male Sprague-Dawley)
# Conditions: mirtazapine 10 mg/kg s.c. (FIGS. 21 and 22)
row,Compound,"extracellular norepinephrine and dopamine, cortex versus striatum"
1,CN1CCN2c3ncccc3Cc3ccccc3C2C1 (stereo not drawn) [mirtazapine],increase predominantly extracellular norepinephrine and dopamine in the cortex

# System: DOPAC levels (3,4-dihydroxyphenylacetic acid) in the rat striatum
# Assay: In vivo neurochemistry: tissue content of DOPAC in rat striatum
# Design: species or system rat (male Sprague-Dawley)
# Conditions: 100 μmol/kg s.c., 60 min after administration, %-increase from control value
# Description: The measurement of the tissue content of DOPAC is well established in the field of research since the 1960's. In short, male Sprague-Dawely rats are administered the test compound 60 minutes prior to decapitation. The brain is rapidly taken out and dissected. The striatum is rapidly frozen and subsequently quantitatively analysed with respect to its content of DOPAC by means of HPLC and electrochemical detection. The number of animals used for each test compound/vehicle is 4/group.
# Male Sprague-Dawley rats weighing 220-320 g are used throughout the experiments. Sixty (60) minutes following administration of the test substance, the rats are decapitated. Directly after decapitation the brain is removed from the skull and put on a glass petri bowl filled with ice. The limbic system (containing the nucleus accumbens—both the core and shell, most parts of the olfactory tubercle and ventral pallidum) is dissected using two thin, angled tweezers and put directly on foil on dry ice (carbon dioxide −78° C.). The striatum and cortex are then dissected and also put on dry ice. The time from decapitation until the last tissue is dissected varies from four to six minutes. The tissue is weighed using a Sartorius BP3105 connected to a computer and packed in labelled tin foil, then stored in an −80° C. freezer. Great care is taken in order to keep the tissue frozen until the time of neurochemical analysis. Each brain part is subsequently analyzed with respect to its content of monoamines and their metabolites.
# The monoamine transmitter substances (NE (norepinephrine), DA (dopamine), 5-HT (serotonin)) as well as their amine (NM (normethanephrine), 3-MT (3-methoxytyramine)) and acid (DOPAC (3,4-dihydroxyphenylacetic acid), 5-HIAA (5-hydroxyindoleacetic acid), HVA (homovanillic acid)) metabolites are quantified in brain tissue homogenates by HPLC separations and electrochemical detection.
# The analytical method is based on two chromatographic separations dedicated for amines or acids. Two chromatographic systems share a common auto injector with a 10-port valve and two sample loops for simultaneous injection on the two systems. Both systems are equipped with a reverse phase column (Luna C18(2), dp 3 μm, 50*2 mm i.d., Phenomenex) and electrochemical detection is accomplished at two potentials on glassy carbon electrodes (MF-1000, Bioanalytical Systems, Inc.). The column effluent is passed via a T-connection to the detection cell or to a waste outlet. This is accomplished by two solenoid valves, which block either the waste or detector outlet. By preventing the chromatographic front from reaching the detector, better detection conditions are achieved. The aqueous mobile phase (0.4 ml/min) for the acid system contains citric acid 14 mM, sodium citrate 10 mM, MeOH 15% (v/v) and EDTA 0.1 mM. Detection potentials relative to Ag/AgCl reference are 0.45 and 0.60V. The aqueous ion pairing mobile phase (0.5 ml/min) for the amine system contains citric acid 5 mM, sodium citrate 10 mM, MeOH 9% (v/v), MeCN 10.5% (v/v), decane sulfonic acid 0.45 mM, and EDTA 0.1 mM. Detection potentials relative to Ag/AgCl reference are 0.45 and 0.65V.
row,Compound,DOPAC %-increase
1,"CN1CCC(c2ccc(F)c(F)c2)C1 (stereo not drawn) [Example 4, 3-(3,4-DIFLUOROPHENYL)-1-METHYLPYRROLIDINE]",−20%
2,"Fc1cc(F)cc(C2CCNC2)c1 (stereo not drawn) [Example 3, 3-(3,5-DIFLUOROPHENYL)PYRROLIDINE]",−19%
3,"Fc1ccc(C2CCNC2)c(F)c1 (stereo not drawn) [Example 2, 3-(2,4-DIFLUOROPHENYL)PYRROLIDINE]",−22%
4,"Fc1ccc(C2CCNC2)cc1F (stereo not drawn) [Example 5, 3-(3,4-DIFLUOROPHENYL)PYRROLIDINE]",−37%
5,"CCCN1CCC(c2cc(F)cc(C(F)(F)F)c2)CC1 [Example 44 of WO01/46146, 4-(3-fluoro-5-trifluoromethyl-phenyl)-1-propyl-piperidine, reference compound]",+239%
6,"CCCN1CCC(c2ccc(Cl)c(C(F)(F)F)c2)CC1 [Example 9 of WO01/46146, 4-(4-chloro-3-trifluoromethyl-phenyl)-1-propyl-piperidine, reference compound]",+94%
7,"Clc1ccc(C2CCNC2)cc1Cl (stereo not drawn) [Example 1, 3-(3,4-DICHLOROPHENYL)PYRROLIDINE]",−45%

# System: DOPAC levels (3,4-dihydroxyphenylacetic acid) in the rat striatum
# Assay: not given
# Conditions: 100 μmol/kg s.c., data taken from Table 2 in Ref 1 (J. Med. Chem. 1994, 37, 2735); cited from earlier work
row,Compound,DOPAC %-increase
1,CCCN1CCC[C@@H](c2cccc(S(C)(=O)=O)c2)C1 [Example 16 of ref. 1],+150^2%
